Values joined by “and” are separate entries in the source; they are usually repeats but may differ in a detail not shown here. Identical values can stand only once. Toxic doses and inconclusive results are not listed. Cut-off read from the data, not from the text of the source: active = T/C of 150% or more; inactive = T/C below 125%.
System: L1210 leukemia ip in BDF1 mice, survival T/C
Experiment: NCI In Vivo Anticancer Drug Screen. Data for tumor model L1210 Leukemia (intraperitoneal) in B6D2F1 (BDF1) mice
Settings: endpoint: mean survival time, higher = longer survival
Summary of the method: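 In this screen, tumor-bearing mice given compound are compared to those given vehicle, and their survival values are reported as a treated-to-control quotient.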

[1] = dose: 12.5 mg/kg/injection, schedule: Q04DX003 (ip), vehicle: saline
[2] = dose: 100.0 mg/kg/injection, schedule: Q04DX002 (ip), vehicle: saline
[3] = dose: 200.0 mg/kg/injection, schedule: Q04DX002 (ip), vehicle: saline
[4] = dose: 100.0 mg/kg/injection, schedule: Q04DX002 (ip), vehicle: Klucel (hydroxypropylcellulose) (HPC)
[5] = dose: 100.0 mg/kg/injection, schedule: Q01DX009 (ip), vehicle: saline with Tween-80
[6] = dose: 200.0 mg/kg/injection, schedule: Q01DX009 (ip), vehicle: saline with Tween-80
[7] = dose: 100.0 mg/kg/injection, schedule: Q04DX002 (ip), vehicle: saline with Tween-80
[8] = dose: 200.0 mg/kg/injection, schedule: Q04DX002 (ip), vehicle: saline with Tween-80
[9] = dose: 100.0 mg/kg/injection, schedule: Q01DX009 (ip), vehicle: saline
[10] = dose: 100.0 mg/kg/injection, schedule: Q04DX003 (ip), vehicle: saline with Tween-80
[11] = dose: 200.0 mg/kg/injection, schedule: Q01DX009 (ip), vehicle: saline
[12] = dose: 200.0 mg/kg/injection, schedule: Q04DX003 (ip), vehicle: saline with Tween-80
[13] = dose: 400.0 mg/kg/injection, schedule: Q01DX009 (ip), vehicle: saline
[14] = dose: 400.0 mg/kg/injection, schedule: Q04DX003 (ip), vehicle: saline with Tween-80
[15] = dose: 100.0 mg/kg/injection, schedule: Q04DX003 (ip), vehicle: saline
[16] = dose: 200.0 mg/kg/injection, schedule: Q04DX003 (ip), vehicle: saline
[17] = dose: 400.0 mg/kg/injection, schedule: Q04DX003 (ip), vehicle: saline
[18] = dose: 100.0 mg/kg/injection, schedule: Q01DX009 (ip), vehicle: Klucel (hydroxypropylcellulose) (HPC)
[19] = dose: 200.0 mg/kg/injection, schedule: Q01DX009 (ip), vehicle: Klucel (hydroxypropylcellulose) (HPC)
[20] = dose: 400.0 mg/kg/injection, schedule: Q01DX009 (ip), vehicle: Klucel (hydroxypropylcellulose) (HPC)
[21] = dose: 400.0 mg/kg/injection, schedule: Q04DX002 (ip), vehicle: saline with Tween-80

Measured: T/C

C(=P(c1ccccc1)(c1ccccc1)c1ccccc1)[P+](c1ccccc1)(c1ccccc1)c1ccccc1
inactive: dose: 0.78 mg/kg/injection, schedule: Q01DX009 (ip), vehicle: saline 102 % of control and 109 % of control | dose: 1.56 mg/kg/injection, schedule: Q01DX009 (ip), vehicle: saline 98 % of control and 88 % of control | dose: 3.12 mg/kg/injection, schedule: Q01DX009 (ip), vehicle: saline 100 % of control | dose: 3.13 mg/kg/injection, schedule: Q01DX001 (ip), vehicle: saline 90 % of control | dose: 3.13 mg/kg/injection, schedule: Q04DX002 (ip), vehicle: saline 97 % of control | dose: 3.13 mg/kg/injection, schedule: Q04DX003 (ip), vehicle: saline 102 % of control | dose: 6.0 mg/kg/injection, schedule: Q01DX009 (ip), vehicle: saline 106 % of control | dose: 6.25 mg/kg/injection, schedule: Q01DX001 (ip), vehicle: saline 100 % of control | dose: 6.25 mg/kg/injection, schedule: Q01DX009 (ip), vehicle: saline 117 % of control | dose: 6.25 mg/kg/injection, schedule: Q04DX002 (ip), vehicle: saline 96 % of control and 100 % of control | dose: 6.25 mg/kg/injection, schedule: Q04DX003 (ip), vehicle: saline 106 % of control | dose: 9.3 mg/kg/injection, schedule: Q01DX009 (ip), vehicle: saline 95 % of control | dose: 12.5 mg/kg/injection, schedule: Q01DX001 (ip), vehicle: saline 97 % of control | dose: 12.5 mg/kg/injection, schedule: Q01DX009 (ip), vehicle: saline 115 % of control and 117 % of control | dose: 12.5 mg/kg/injection, schedule: Q04DX002 (ip), vehicle: saline 97 % of control and 99 % of control | [1] 101 % of control | dose: 13.0 mg/kg/injection, schedule: Q01DX009 (ip), vehicle: saline 93 % of control | [2] 90 % of control | [3] 93 % of control

O=S(=O)(C#Cc1ccccc1)c1ccccc1
inactive: [4] 89 % of control

CC1=C(OS(=O)(=O)c2ccc(C)cc2)CCCC1=O
inactive: dose: 50.0 mg/kg/injection, schedule: Q01DX009 (ip), vehicle: saline with Tween-80 100 % of control | [5] 100 % of control | [6] 88 % of control

N#CC(C#N)=CN1CCOCC1
inactive: [7] 87 % of control | [8] 87 % of control

C#CC1(OCC2CO2)CCCCC1 (configuration not stated)
inactive: dose: 50.0 mg/kg/injection, schedule: Q01DX009 (ip), vehicle: saline 97 % of control | dose: 50.0 mg/kg/injection, schedule: Q04DX003 (ip), vehicle: saline with Tween-80 100 % of control | [9] 117 % of control | [10] 101 % of control | [11] 101 % of control | [12] 103 % of control | [13] 94 % of control | [14] 100 % of control

CCCCOCCOCCOCCO
inactive: [9] 98 % of control | [15] 98 % of control | [11] 98 % of control | [16] 98 % of control | [13] 102 % of control | [17] 97 % of control

Cc1c(Cl)cccc1NC(=O)Nc1ccccc1F
inactive: [18] 91 % of control | [4] 97 % of control | [19] 106 % of control | dose: 200.0 mg/kg/injection, schedule: Q04DX002 (ip), vehicle: Klucel (hydroxypropylcellulose) (HPC) 97 % of control | [20] 96 % of control | dose: 400.0 mg/kg/injection, schedule: Q04DX002 (ip), vehicle: Klucel (hydroxypropylcellulose) (HPC) 94 % of control

CC(=O)Nc1ccc(NC(=O)c2cccc3ccccc23)cc1
inactive: dose: 50.0 mg/kg/injection, schedule: Q01DX009 (ip), vehicle: Klucel (hydroxypropylcellulose) (HPC) 90 % of control | [18] 98 % of control and 86 % of control and 90 % of control | [19] 86 % of control | [20] 87 % of control and 89 % of control

NC(=O)/C=C\C(=O)O (tested in a mixture with another compound)
inactive: dose: 31.25 mg/kg/injection, schedule: Q#A X Z (ip), vehicle: carboxymethylcellulose (CMC) 106 % of control | dose: 62.5 mg/kg/injection, schedule: Q#A X Z (ip), vehicle: carboxymethylcellulose (CMC) 110 % of control | dose: 125.0 mg/kg/injection, schedule: Q#A X Z (ip), vehicle: carboxymethylcellulose (CMC) 118 % of control | dose: 250.0 mg/kg/injection, schedule: Q#A X Z (ip), vehicle: carboxymethylcellulose (CMC) 108 % of control

CCN(C(=O)Nc1ccccc1)c1ccccc1C
inactive: [5] 97 % of control | [10] 111 % of control | [6] 86 % of control | [12] 98 % of control | dose: 400.0 mg/kg/injection, schedule: Q01DX009 (ip), vehicle: saline with Tween-80 92 % of control | [14] 102 % of control

CCCC[N+](C)(CCCC)CC(O)c1cc(-c2ccc(Cl)cc2)nc2c(Cl)cc(Cl)cc12 (configuration not stated)
inactive: [1] 102 % of control

NNc1c(F)c(F)c(Br)c(F)c1F
inactive: dose: 25.6 mg/kg/injection, schedule: Q04DX002 (ip), vehicle: saline with Tween-80 106 % of control | dose: 64.0 mg/kg/injection, schedule: Q04DX002 (ip), vehicle: saline with Tween-80 95 % of control | dose: 160.0 mg/kg/injection, schedule: Q04DX002 (ip), vehicle: saline with Tween-80 106 % of control | [21] 95 % of control

COC1OCC(Cl)C(Cl)C1O (configuration not stated)
inactive: dose: 50.0 mg/kg/injection, schedule: Q04DX002 (ip), vehicle: saline 110 % of control | [2] 100 % of control | [3] 100 % of control

CO/N=C(/C)C1(O)Cc2c(O)c3c(c(O)c2C(OC2CC(N)C(O)C(C)O2)C1)C(=O)c1c(OC)cccc1C3=O (configuration not stated)
inactive: dose: 1.0 mg/kg/injection, schedule: Q01DX009 (ip), vehicle: water 109 % of control | dose: 2.0 mg/kg/injection, schedule: Q01DX009 (ip), vehicle: water 109 % of control | dose: 2.0 mg/kg/injection, schedule: Q04DX003 (ip), vehicle: water 101 % of control | dose: 3.12 mg/kg/injection, schedule: Q01DX009 (ip), vehicle: saline with Tween-80 111 % of control | dose: 4.0 mg/kg/injection, schedule: Q01DX009 (ip), vehicle: water 108 % of control | dose: 4.0 mg/kg/injection, schedule: Q04DX003 (ip), vehicle: water 100 % of control | dose: 6.25 mg/kg/injection, schedule: Q01DX009 (ip), vehicle: saline with Tween-80 106 % of control | dose: 8.0 mg/kg/injection, schedule: Q01DX009 (ip), vehicle: water 106 % of control | dose: 8.0 mg/kg/injection, schedule: Q04DX003 (ip), vehicle: water 101 % of control | dose: 12.5 mg/kg/injection, schedule: Q01DX009 (ip), vehicle: saline with Tween-80 106 % of control | [1] 95 % of control | dose: 125.0 micrograms/kg/injection, schedule: Q04DX003 (ip), vehicle: water 100 % of control | dose: 250.0 micrograms/kg/injection, schedule: Q04DX003 (ip), vehicle: water 101 % of control | dose: 500.0 micrograms/kg/injection, schedule: Q04DX003 (ip), vehicle: water 97 % of control | dose: 1000.0 micrograms/kg/injection, schedule: Q04DX003 (ip), vehicle: water 105 % of control | dose: 2000.0 micrograms/kg/injection, schedule: Q04DX003 (ip), vehicle: water 102 % of control

Cc1ccc(S(=O)(=O)NNc2c3ccccc3nc3ccc(Cl)cc23)cc1
inactive: [7] 101 % of control | [8] 97 % of control | [21] 97 % of control

CN1Cc2ccccc2-c2ccccc2C1
inactive: dose: 75.0 mg/kg/injection, schedule: Q01DX001 (ip), vehicle: saline 101 % of control

Cn1cnc(N)c1C(N)=S
inactive: [15] 100 % of control | [19] 98 % of control | [16] 92 % of control | [20] 92 % of control | [17] 104 % of control

— PubChem BioAssay AID248 (DTP/NCI, 2004)
